Source: ChEMBL document CHEMBL1149623, “Identification of antibacterial and antiviral activities of novel fused 1,2,4-triazine esters” (2007)

Experiments:
Echovirus E9 [1] = test: Antiviral activity against Human echovirus 9 in GMK cells assessed as virus titre at 200 ug/mL after 1 hr; format: functional
HEK293 [2] = test: Cytotoxicity against human HEK293 cells at 100 ug/mL after 24 hrs by MTT assay; format: functional
HEK293 [3] = test: Cytotoxicity against human HEK293 cells at 200 ug/mL after 24 hrs by MTT assay; format: functional
[4] = Cytotoxicity against monkey GMK cells at 5 ug/mL after 120 hrs by MTT assay; format: functional, Chlorocebus aethiops
HEK293 [5] = test: Cytotoxicity against human HEK293 cells at 5 ug/mL after 24 hrs by MTT assay; format: functional
HEK293 [6] = test: Cytotoxicity against human HEK293 cells at 25 ug/mL after 120 hrs by MTT assay; format: functional
HEK293 [7] = test: Cytotoxicity against human HEK293 cells at 10 ug/mL after 24 hrs by MTT assay; format: functional
[8] = Cytotoxicity against monkey GMK cells at 25 ug/mL after 96 hrs by MTT assay; format: functional, Chlorocebus aethiops
HEK293 [9] = test: Cytotoxicity against human HEK293 cells at 50 ug/mL after 120 hrs by MTT assay; format: functional
HEK293 [10] = test: Cytotoxicity against human HEK293 cells at 25 ug/mL after 24 hrs by MTT assay; format: functional
[11] = Cytotoxicity against monkey GMK cells at 5 ug/mL after 72 hrs by MTT assay; format: functional, Chlorocebus aethiops
HEK293 [12] = test: Cytotoxicity against human HEK293 cells at 200 ug/mL after 96 hrs by MTT assay; format: functional
HEK293 [13] = test: Cytotoxicity against human HEK293 cells at 50 ug/mL after 72 hrs by MTT assay; format: functional
HEK293 [14] = test: Cytotoxicity against human HEK293 cells at 5 ug/mL after 96 hrs by MTT assay; format: functional
[15] = Cytotoxicity against monkey GMK cells at 50 ug/mL after 120 hrs by MTT assay; format: functional, Chlorocebus aethiops
[16] = Cytotoxicity against monkey GMK cells at 2.5 ug/mL after 120 hrs by MTT assay; format: functional, Chlorocebus aethiops
[17] = Cytotoxicity against monkey GMK cells at 25 ug/mL after 48 hrs by MTT assay; format: functional, Chlorocebus aethiops
HEK293 [18] = test: Cytotoxicity against human HEK293 cells at 100 ug/mL after 48 hrs by MTT assay; format: functional
HEK293 [19] = test: Cytotoxicity against human HEK293 cells at 100 ug/mL after 120 hrs by MTT assay; format: functional
[20] = Cytotoxicity against monkey GMK cells at 5 ug/mL after 24 hrs by MTT assay; format: functional, Chlorocebus aethiops
[21] = Cytotoxicity against monkey GMK cells at 5 ug/mL after 48 hrs by MTT assay; format: functional, Chlorocebus aethiops
HEK293 [22] = test: Cytotoxicity against human HEK293 cells at 25 ug/mL after 96 hrs by MTT assay; format: functional
[23] = Cytotoxicity against monkey GMK cells at 200 ug/mL after 72 hrs by MTT assay; format: functional, Chlorocebus aethiops
Echovirus E9 [24] = test: Antiviral activity against Human echovirus 9 in GMK cells assessed as virus titre at 50 ug/mL after 1 hr; format: functional
HEK293 [25] = test: Cytotoxicity against human HEK293 cells at 2.5 ug/mL after 72 hrs by MTT assay; format: functional
HEK293 [26] = test: Cytotoxicity against human HEK293 cells at 50 ug/mL after 96 hrs by MTT assay; format: functional
HEK293 [27] = test: Cytotoxicity against human HEK293 cells at 50 ug/mL after 48 hrs by MTT assay; format: functional
[28] = Cytotoxicity against monkey GMK cells at 10 ug/mL after 72 hrs by MTT assay; format: functional, Chlorocebus aethiops
HEK293 [29] = test: Cytotoxicity against human HEK293 cells at 100 ug/mL after 72 hrs by MTT assay; format: functional
[30] = Cytotoxicity against monkey GMK cells at 25 ug/mL after 24 hrs by MTT assay; format: functional, Chlorocebus aethiops
[31] = Cytotoxicity against monkey GMK cells at 10 ug/mL after 48 hrs by MTT assay; format: functional, Chlorocebus aethiops
[32] = Cytotoxicity against monkey GMK cells at 100 ug/mL after 72 hrs by MTT assay; format: functional, Chlorocebus aethiops
[33] = Cytotoxicity against monkey GMK cells at 10 ug/mL after 120 hrs by MTT assay; format: functional, Chlorocebus aethiops
HEK293 [34] = test: Cytotoxicity against human HEK293 cells at 200 ug/mL after 120 hrs by MTT assay; format: functional
HEK293 [35] = test: Cytotoxicity against human HEK293 cells at 2.5 ug/mL after 48 hrs by MTT assay; format: functional
HEK293 [36] = test: Cytotoxicity against human HEK293 cells at 50 ug/mL after 24 hrs by MTT assay; format: functional
Human adenovirus 5 = test: Antiviral activity against Human adenovirus 5 in HEK293 cells assessed as virus titre at 50 ug/mL after 1 hr; format: functional
[37] = Cytotoxicity against monkey GMK cells at 50 ug/mL after 96 hrs by MTT assay; format: functional, Chlorocebus aethiops
[38] = Cytotoxicity against monkey GMK cells at 50 ug/mL after 24 hrs by MTT assay; format: functional, Chlorocebus aethiops
HEK293 [39] = test: Cytotoxicity against human HEK293 cells at 2.5 ug/mL after 24 hrs by MTT assay; format: functional
HEK293 [40] = test: Cytotoxicity against human HEK293 cells at 200 ug/mL after 72 hrs by MTT assay; format: functional
[41] = Cytotoxicity against monkey GMK cells at 200 ug/mL after 48 hrs by MTT assay; format: functional, Chlorocebus aethiops
Echovirus E9 [42] = test: Antiviral activity against Human echovirus 9 in GMK cells assessed as virus titre at 100 ug/mL after 1 hr; format: functional
HEK293 [43] = test: Cytotoxicity against human HEK293 cells at 200 ug/mL after 48 hrs by MTT assay; format: functional
HEK293 [44] = test: Cytotoxicity against human HEK293 cells at 10 ug/mL after 48 hrs by MTT assay; format: functional
[45] = Cytotoxicity against monkey GMK cells at 100 ug/mL after 96 hrs by MTT assay; format: functional, Chlorocebus aethiops
HEK293 [46] = test: Cytotoxicity against human HEK293 cells at 25 ug/mL after 48 hrs by MTT assay; format: functional
HEK293 [47] = test: Cytotoxicity against human HEK293 cells at 2.5 ug/mL after 120 hrs by MTT assay; format: functional
[48] = Cytotoxicity against monkey GMK cells at 2.5 ug/mL after 48 hrs by MTT assay; format: functional, Chlorocebus aethiops
HEK293 [49] = test: Cytotoxicity against human HEK293 cells at 5 ug/mL after 120 hrs by MTT assay; format: functional
[50] = Cytotoxicity against monkey GMK cells at 2.5 ug/mL after 96 hrs by MTT assay; format: functional, Chlorocebus aethiops
[51] = Cytotoxicity against monkey GMK cells at 25 ug/mL after 120 hrs by MTT assay; format: functional, Chlorocebus aethiops
[52] = Cytotoxicity against monkey GMK cells at 100 ug/mL after 120 hrs by MTT assay; format: functional, Chlorocebus aethiops
[53] = Cytotoxicity against monkey GMK cells at 5 ug/mL after 96 hrs by MTT assay; format: functional, Chlorocebus aethiops
HEK293 [54] = test: Cytotoxicity against human HEK293 cells at 10 ug/mL after 96 hrs by MTT assay; format: functional
[55] = Cytotoxicity against monkey GMK cells at 10 ug/mL after 96 hrs by MTT assay; format: functional, Chlorocebus aethiops
[56] = Cytotoxicity against monkey GMK cells at 2.5 ug/mL after 24 hrs by MTT assay; format: functional, Chlorocebus aethiops

CCOC(=O)CC1NN=C2N(CCN2c2ccc(C)cc2)C1=O (configuration not stated)
TCID50 (Echovirus E9 [1]): 3.67 mL⁻¹ | Activity (HEK293 [2]): 70% | Activity (HEK293 [3]): 30% | Activity [4]: 100% | Activity (HEK293 [5]): 100% | Activity (HEK293 [6]): 95% | Activity (HEK293 [7]): 100% | Activity [8]: 80% | Activity (HEK293 [9]): 75% | Activity (HEK293 [10]): 100% | Activity [11]: 100% | Activity (HEK293 [12]): 15% | Activity (HEK293 [13]): 80% | Activity (HEK293 [14]): 100% | Activity [15]: 70% | Activity [16]: 100% | Activity [17]: 90% | Activity (HEK293 [18]): 80% | Activity (HEK293 [19]): 70% | Activity [20]: 100% | Activity [21]: 100% | Activity (HEK293 [22]): 95% | Activity [23]: 0% | TCID50 (Echovirus E9 [24]): 3.67 mL⁻¹ | Activity (HEK293 [25]): 100% | Activity (HEK293 [26]): 70% | Activity (HEK293 [27]): 80% | Activity [28]: 100% | Activity (HEK293 [29]): 70% | Activity [30]: 100% | Activity [31]: 100% | Activity [32]: 70% | Activity [33]: 90% | Activity (HEK293 [34]): 15% | Activity (HEK293 [35]): 100% | Activity (HEK293 [36]): 90% | TCID50 (Human adenovirus 5): 2.5 mL⁻¹ | Activity [37]: 70% | Activity [38]: 90% | Activity (HEK293 [39]): 100% | Activity (HEK293 [40]): 15% | Activity [41]: 0% | TCID50 (Echovirus E9 [42]): 3.67 mL⁻¹ | Activity (HEK293 [43]): 20% | Activity (HEK293 [44]): 100% | Activity [45]: 70% | Activity (HEK293 [46]): 100% | Activity (HEK293 [47]): 100% | Activity [48]: 100% | Activity (HEK293 [49]): 100% | Activity [50]: 100% | Activity [51]: 70% | Activity [52]: 70% | Activity [53]: 100% | Activity (HEK293 [54]): 100% | Activity [55]: 95% | Activity [56]: 100%
